Measured values published in patent US12479840B2, “HMG-CoA reductase degradation inducing compound” (Uppthera, priority 2020, dated 2025).

The molecules below were run against T1, HMG-CoA reductase (Homo sapiens, UniProt P04035) (assay: HMG-CoA reductase (HMGCR) degradation in HepG2 cells by western blotting). Conditions: treated for 18 hours, ratio of HMG-CoA reductase to GAPDH, read-out: DC50.
T1 construct: endogenous in cells; host or cells: HepG2 (Korea Cell Line Bank)
T1 sequence (P04035 1-888): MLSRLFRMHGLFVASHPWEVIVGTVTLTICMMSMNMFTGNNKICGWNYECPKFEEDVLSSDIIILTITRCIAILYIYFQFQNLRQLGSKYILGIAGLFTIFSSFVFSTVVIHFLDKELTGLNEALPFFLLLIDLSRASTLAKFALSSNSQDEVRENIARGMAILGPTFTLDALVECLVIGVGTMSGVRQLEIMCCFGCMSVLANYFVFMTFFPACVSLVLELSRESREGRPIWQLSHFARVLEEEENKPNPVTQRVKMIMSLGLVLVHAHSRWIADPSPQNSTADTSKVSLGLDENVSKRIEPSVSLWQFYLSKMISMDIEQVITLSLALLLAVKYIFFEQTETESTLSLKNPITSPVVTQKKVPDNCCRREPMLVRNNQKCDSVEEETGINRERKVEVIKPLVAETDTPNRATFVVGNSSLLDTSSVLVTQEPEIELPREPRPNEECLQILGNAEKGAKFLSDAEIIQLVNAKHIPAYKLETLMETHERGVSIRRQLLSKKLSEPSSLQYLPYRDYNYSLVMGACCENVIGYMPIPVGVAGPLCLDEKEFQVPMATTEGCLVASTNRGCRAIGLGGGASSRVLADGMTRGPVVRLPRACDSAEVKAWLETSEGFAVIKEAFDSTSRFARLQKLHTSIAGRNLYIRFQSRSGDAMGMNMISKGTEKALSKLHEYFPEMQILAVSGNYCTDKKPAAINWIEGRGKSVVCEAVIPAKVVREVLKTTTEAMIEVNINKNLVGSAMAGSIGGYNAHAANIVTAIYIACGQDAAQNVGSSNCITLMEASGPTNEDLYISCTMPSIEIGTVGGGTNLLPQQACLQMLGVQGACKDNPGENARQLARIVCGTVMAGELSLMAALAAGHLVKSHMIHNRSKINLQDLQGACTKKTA
Assay type: cell-based
How it was run: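 HepG2 cells (passage P105–P110) treated 18 hours with compounds in 10-point three-fold dilutions from 3 μM. RIPA lysates (15 μg protein, BCA-quantified) run on SDS-PAGE and immunoblotted for HMGCR (1:500) with GAPDH (1:20000) as loading control, primary antibodies 16 hours at 4° C.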

Structure (SMILES) | DC50
C[C@H]1C=C2C=C[C@H](C)[C@H](CC[C@@H]3C[C@@H](O[Si](C)(C)C(C)(C)C)CC(=O)O3)[C@H]2[C@@H](OC(=O)NCc2cccc(CNC(=O)COc3cccc4c3C(=O)N(C3CCC(=O)NC3=O)C4=O)c2)C1 (stereo partly drawn) [Compound 78, (1S,3R,7S,8S,8aR)-8-(2-((2R,4R)-4-((tert-butyldimethylsilyl)oxy)-6-oxotetrahydro-2H-pyran-2-yl)ethyl)-3,7-dimethyl-1,2,3,7,8,8a-hexahydronaphthalen-1-yl (3-((2-((2-(2,6-dioxopiperidin-3-yl)-1,3-dioxoisoindolin-4-yl)oxy)acetamido)methyl)benzyl)carbamate] | < 0.05 µM
C[C@H]1C=C2C=C[C@H](C)[C@H](CC[C@@H]3C[C@@H](O[Si](C)(C)C(C)(C)C)CC(=O)O3)[C@H]2[C@@H](OC(=O)NCCOCCNc2cccc3c2C(=O)N(C2CCC(=O)NC2=O)C3=O)C1 (stereo partly drawn) [Compound 86, (1S,3R,7S,8S,8aR)-8-(2-((2R,4R)-4-((tert-butyldimethylsilyl)oxy)-6-oxotetrahydro-2H-pyran-2-yl)ethyl)-3,7-dimethyl-1,2,3,7,8,8a-hexahydronaphthalen-1-yl (2-(2-((2-(2,6-dioxopiperidin-3-yl)-1,3-dioxoisoindolin-4-yl)amino)ethoxy)ethyl)carbamate] | < 0.05 µM
C[C@H]1C=C2C=C[C@H](C)[C@H](CC[C@@H]3C[C@@H](O)CC(=O)O3)[C@H]2[C@@H](OC(=O)NCCOCCOCC#Cc2cccc3c2C(=O)N(C2CCC(=O)NC2=O)C3=O)C1 (stereo partly drawn) [Compound 115, (1S,3R,7S,8S,8aR)-8-(2-((2R,4R)-4-hydroxy-6-oxotetrahydro-2H-pyran-2-yl)ethyl)-3,7-dimethyl-1,2,3,7,8,8a-hexahydronaphthalen-1-yl (2-(2-((3-(2-(2,6-dioxopiperidin-3-yl)-1,3-dioxoisoindolin-4-yl)prop-2-yn-1-yl)oxy)ethoxy)ethyl)carbamate] | < 0.05 µM
C[C@H]1C=C2C=C[C@H](C)[C@H](CC[C@@H]3C[C@@H](O)CC(=O)O3)[C@H]2[C@@H](OC(=O)NCCCOC2CCN(C(=O)COc3cccc4c3C(=O)N(C3CCC(=O)NC3=O)C4=O)CC2)C1 (stereo partly drawn) [Compound 135, (1S,3R,7S,8S,8aR)-8-(2-((2R,4R)-4-hydroxy-6-oxotetrahydro-2H-pyran-2-yl)ethyl)-3,7-dimethyl-1,2,3,7,8,8a-hexahydronaphthalen-1-yl (3-((1-(2-((2-(2,6-dioxopiperidin-3-yl)-1,3-dioxoisoindolin-4-yl)oxy)acetyl)piperidin-4-yl)oxy)propyl)carbamate] | < 0.05 µM
C[C@H]1C=C2C=C[C@H](C)[C@H](CC[C@@H]3C[C@@H](O[Si](C)(C)C(C)(C)C)CC(=O)O3)[C@H]2[C@@H](OC(=O)NCCCCCCCCCCNc2cccc3c2C(=O)N(C2CCC(=O)NC2=O)C3=O)C1 (stereo partly drawn) [Compound 56, (1S,3R,7S,8S,8aR)-8-(2-((2R,4R)-4-((tert-butyldimethylsilyl)oxy)-6-oxotetrahydro-2H-pyran-2-yl)ethyl)-3,7-dimethyl-1,2,3,7,8,8a-hexahydronaphthalen-1-yl (10-((2-(2,6-dioxopiperidin-3-yl)-1,3-dioxoisoindolin-4-yl)amino)decyl)carbamate] | < 0.05 µM
C[C@H]1C=C2C=C[C@H](C)[C@H](CC[C@@H]3C[C@@H](O[Si](C)(C)C(C)(C)C)CC(=O)O3)[C@H]2[C@@H](OC(=O)NCCCCCCNc2cccc3c2C(=O)N(C2CCC(=O)NC2=O)C3=O)C1 (stereo partly drawn) [Compound 52, (1S,3R,7S,8S,8aR)-8-(2-((2R,4R)-4-((tert-butyldimethylsilyl)oxy)-6-oxotetrahydro-2H-pyran-2-yl)ethyl)-3,7-dimethyl-1,2,3,7,8,8a-hexahydronaphthalen-1-yl (6-((2-(2,6-dioxopiperidin-3-yl)-1,3-dioxoisoindolin-4-yl)amino)hexyl)carbamate] | < 0.05 µM

More lines, now with the values ahead:

DC50 | Structure (SMILES)
< 0.05 µM | Cc1ncsc1-c1ccc(CNC(=O)[C@@H]2C[C@@H](O)CN2C(=O)[C@@H](NC(=O)COCCOCCNC(=O)CCC(C)(C)C(=O)O[C@H]2C[C@@H](C)C=C3C=C[C@H](C)[C@H](CC[C@@H]4C[C@@H](O)CC(=O)O4)[C@H]32)C(C)(C)C)cc1 [Compound 9, (S)-(1S,3R,7S,8S,8aR)-8-(2-((2R,4R)-4-hydroxy-6-oxotetrahydro-2H-pyran-2-yl)ethyl)-3,7-dimethyl-1,2,3,7,8,8a-hexahydronaphthalen-1-yl 3-((2S,4R)-4-hydroxy-2-((4-(4-methylthiazol-5-yl)benzyl)carbamoyl)pyrrolidine-1-carbonyl)-2,2,17,17-tetramethyl-5,14-dioxo-7,10-dioxa-4,13-diazaoctadecan-18-oate]
> 0.5 µM | C[C@H]1C=C2C=C[C@H](C)[C@H](CC[C@H]3C[C@H](O)CC(=O)O3)[C@H]2[C@@H](OC(=O)NCCOCCOCCOCC(=O)NCC(C)(C)C)C1 [Compound 13, (1S,3R,7S,8S,8aR)-8-(2-((2S,4S)-4-hydroxy-6-oxotetrahydro-2H-pyran-2-yl)ethyl)-3,7-dimethyl-1,2,3,7,8,8a-hexahydronaphthalen-1-yl (14,14-dimethyl-11-oxo-3,6,9-trioxa-12-azapentadecyl) carbamate]
< 0.05 µM | C[C@H]1C=C2C=C[C@H](C)[C@H](CC[C@@H]3C[C@@H](O)CC(=O)O3)[C@H]2[C@@H](OC(=O)NCCOCCCOCCNc2cccc3c2C(=O)N(C2CCC(=O)NC2=O)C3=O)C1 (stereo partly drawn) [Compound 91, (1S,3R,7S,8S,8aR)-8-(2-((2R,4R)-4-hydroxy-6-oxotetrahydro-2H-pyran-2-yl)ethyl)-3,7-dimethyl-1,2,3,7,8,8a-hexahydronaphthalen-1-yl (2-(3-(2-((2-(2,6-dioxopiperidin-3-yl)-1,3-dioxoisoindolin-4-yl)amino)ethoxy)propoxy)ethyl)carbamate]
< 0.05 µM | C[C@H]1C=C2C=C[C@H](C)[C@H](CC[C@@H]3C[C@@H](O)CC(=O)O3)[C@H]2[C@@H](OC(=O)C(C)(C)CCC(=O)NCCOCCOCCOCCOCCNc2cccc3c2C(=O)N(C2CCC(=O)NC2=O)C3=O)C1 (stereo partly drawn) [Compound 4, (1S,3R,7S,8S,8aR)-8-(2-((2R,4R)-4-hydroxy-6-oxotetrahydro-2H-pyran-2-yl)ethyl)-3,7-dimethyl-1,2,3,7,8,8a-hexahydronaphthalen-1-yl 1-((2-(2,6-dioxopiperidin-3-yl)-1,3-dioxoisoindolin-4-yl)amino)-19,19-dimethyl-16-oxo-3,6,9,12-tetraoxa-15-azaicosan-20-oate]
< 0.05 µM | C[C@H]1C=C2C=C[C@H](C)[C@H](CC[C@@H]3C[C@@H](O[Si](C)(C)C(C)(C)C)CC(=O)O3)[C@H]2[C@@H](OC(=O)NCCOCCOCCNC(=O)COc2cccc3c2C(=O)N(C2CCC(=O)NC2=O)C3=O)C1 (stereo partly drawn) [Compound 138, (1S,3R,7S,8S,8aR)-8-(2-((2R,4R)-4-((tert-butyldimethylsilyl)oxy)-6-oxotetrahydro-2H-pyran-2-yl)ethyl)-3,7-dimethyl-1,2,3,7,8,8a-hexahydronaphthalen-1-yl (2-(2-(2-(2-((2-(2,6-dioxopiperidin-3-yl)-1,3-dioxoisoindolin-4-yl)oxy)acetamido)ethoxy)ethoxy)ethyl)carbamate]
< 0.05 µM | Cc1ncsc1-c1ccc(CNC(=O)[C@@H]2C[C@@H](O)CN2C(=O)[C@@H](NC(=O)CCCCCCCCCCNC(=O)O[C@H]2C[C@@H](C)C=C3C=C[C@H](C)[C@H](CC[C@@H]4C[C@@H](O)CC(=O)O4)[C@H]32)C(C)(C)C)cc1 [Compound 160, (1S,3R,7S,8S,8aR)-8-(2-((2R,4R)-4-hydroxy-6-oxotetrahydro-21H-pyran-2-yl)ethyl)-3,7-dimethyl-1,2,3,7,8,8a-hexahydronaphthalen-1-yl (11-(((S)-1-((2S,4R)-4-hydroxy-2-((4-(4-methylthiazol-5-yl)benzyl)carbamoyl)pyrrolidin-1-yl)-3,3-dimethyl-1-oxobutan-2-yl)amino)-11-oxoundecyl)carbamate]
> 0.5 µM | C[C@H]1C=C2C=C[C@H](C)[C@H](CC[C@@H]3C[C@@H](O)CC(=O)O3)[C@H]2[C@@H](OC(=O)C(C)(C)CCC(=O)NCCOCCOCCOCC(=O)NCC(C)(C)C)C1 [Compound 7, (1S,3R,7S,8S,8aR)-8-(2-((2R,4R)-4-hydroxy-6-oxotetrahydro-2H-pyran-2-yl)ethyl)-3,7-dimethyl-1,2,3,7,8,8a-hexahydronaphthalen-1-yl 2,2,20,20-tetramethyl-5,17-dioxo-7,10,13-trioxa-4,16-diazahenicosan-21-oate]
